Assays:
[1] = human liver microsomes
[2] = Human hepatocyte stability; type: in vitro ADME; settings: human hepatocytes
[3] = test system: U87 MG/M human glioblastoma xenografts; settings: each dose, for the duration of the xenograft study

| SMILES | HLM Clhep [1] [L/h/kg] | HH Clhep [2] [L/h/kg] | tolerability [3] |
| --- | --- | --- | --- |
| CC1(C)OCCn2c1nc1c(N3CCOCC3)nc(-c3cnc(N)nc3)nc12 [Compound 16, GDC-0084] | 0.3 | 0.06 | well tolerated |
| COC1(c2sc3c(N4CCOCC4)nc(-c4cnc(N)nc4)nc3c2C)COC1 [Compound 2, reference compound] | 0.588 |  |  |
| COC(C)(C)c1cc2nc(-c3cnc(N)nc3)nc(N3CCOCC3)c2s1 [Compound 1, reference compound] | 0.624 |  |  |
| Cc1nc(N)ncc1-c1nc(N2CCOCC2)c2nc3n(c2n1)CCOC3(C)C [Compound 15] | 0.186 | 0.072 |  |
| Cc1nc(N)ncc1-c1nc(N2CCOCC2)c2nc(C(C)(C)O)n(CCO)c2n1 [Compound 4] | 0.168 |  |  |
